Source: US6255080A, “Bacteriocins produced by ruminal bacteria” (priority 1998, dated 2001)
“Also recorded” adds a separate entry of the source.

Tests used:
[1] = test system: indicator; assay: Effect of detergents on the indicator; type: cell-based
Method: Further increases in carbohydrate beyond 2% (w/v) had no further effect on enhancing production in liquid culture. As several bacteriocins are known to be cell associated (Jack et al., 1995), bound activity was assayed for by washing pelleted cells with various detergents (Triton X-100, Tween 80, Tween 20). […] However, both Tween 80 and Tween 20 appeared to have no detrimental efLect on the indicator at levels of up to 1.0% (v/v).

[2] = test system: indicator strain of B. fibrisolvens; assay: Drop (spot) test and diffusion well assay of inhibitory activity; type: cell-based, Butyrivibrio fibrisolvens; conditions: spot testing, peptide purified by reverse phase chromatography
Method: Isolates found to produce bacteriocin-like activity using the deferred plating technique were tested for the production of bacteriocin-like activity in liquid cultures. Briefly, following overnight growth in L-10 medium, a 1.0 ml sample of the culture was centrifuged to remove the cells, and a 100 μl aliquot dropped onto a sterile petri dish and sterilised by exposure to shortwave ultraviolet light for a five minute period. Bacteriocin-like activity within the uv-sterilized spent culture fluid was assayed using both a drop test and diffusion well assay (Tagg et al., 1976). All steps were carried out under anerobic conditions in a glove box.
The active component was purified by FPLC ([…] System, Pharmacia) using reverse phase chromatography. All steps were carried out at 4° C. Solvents consisted of dH2 O (buffer A) and 2-propanol (buffer B), both of which contained 0.1% trifluoroacetic acid. A 0.5 ml aliquot of the crude bacteriocin preparation containing […] was injected onto a Resource RPC 3.0 ml column (Pharmacia), washed with two column volumes of buffer A, and eluted from the column with a gradient from 100% buffer A to 100% buffer B, at a flow rate of 1.0 ml/minute. The elution was monitored at 206 nm. […]

[3] = test system: a-chymotrypsin or pronase; assay: Protease sensitivity in liquid (spent culture medium or purified bacteriocin), drop test; type: in vitro ADME; conditions: purified bacteriocin treated prior to sample preparation
Method: Determination of protease sensitivity of bacteriocin-like activity in liquid cultures was carried out as follows: 10 μl of a stock solution (10 mg/ml) of each protease was added to 100 μl of either spent culture medium or the purified bacteriocin, and incubated at 37° C. for 2 hours, after which activity was assessed using a drop test (Tagg et al., 1976). Controls consisted of protease only (1 in 10 dilution) spotted directly onto an overlay containing the indicator organism.
The purity of the peptide was assessed using Triacine-sodium-dodecyl-sulphate-polyacrylamide gel electrophoresis analysis followed by silver staining. […] Protease sensitivity of the isolated bacteriocin was identical to the protease sensitivity of the inhibitor produced in the deferred plate test (see above).

**Q.** With `CCCCCCCC/C=C\CCCCCCCC(=O)OCCOCC(OCCO)C1OCC(OCCO)C1OCCO` (centres unmarked) [Tween 80] as the molecule, how does the “level with no detrimental effect on the indicator” value [1] read?
**A.** up to 1.0 % (v/v)

**Q.** Butyrivibriocin AR10 was tested. Which “inhibitory activity of the purified peptide” value [2] did it give?
**A.** inhibitory activity; also recorded: inhibitory to the growth

**Q.** What about the “effect of a-chymotrypsin treatment on inhibitory activity” value [3] of the same molecule?
**A.** completely eliminated inhibitory activity

**Q.** And the “effect of pronase treatment on inhibitory activity” value [3]?
**A.** completely eliminated inhibitory activity

**Q.** Triton X-100 was tested. Which “level very detrimental to the indicator” value ([1]; detergent) did it give?
**A.** less than 0.1 % (v/v)
